Data as given in the NIST ThermoML archive (doi:10.1016/j.jct.2016.12.015).
± gives the expanded uncertainty stated by the source.

Conditions: 101.33 kPa, Crystal, Small (less than 1 g) adiabatic calorimetry

C[C@H]1C[C@@H]2[C@H]([C@@H](O)C[C@@]3(C)[C@H]2CC[C@]3(O)C(=O)CO)[C@@]2(C)C=CC(=O)C=C12 [Methylprednisolone]
Conditions | molar entropy [J/K/mol]
5 K | 0.328 ± 0.035
10 K | 2.37 ± 0.15
15 K | 6.133 ± 0.39
20 K | 11.27 ± 0.7
25 K | 17.53 ± 0.34
30 K | 24.43 ± 0.44
35 K | 31.67 ± 0.55
40 K | 39.13 ± 0.67
45 K | 46.76 ± 0.45
50 K | 54.53 ± 0.51
60 K | 70.39 ± 0.64
70 K | 86.6 ± 0.77
80 K | 103 ± 0.9
90 K | 119.5 ± 1
100 K | 136.1 ± 1.1
110 K | 152.7 ± 1.3
120 K | 169.2 ± 1.4
130 K | 185.7 ± 1.5
140 K | 202.1 ± 1.6
150 K | 218.5 ± 1.7
160 K | 234.8 ± 1.9
170 K | 251 ± 2
180 K | 267.2 ± 2.1
190 K | 283.3 ± 2.2
200 K | 299.3 ± 2.3
210 K | 315.3 ± 2.4
220 K | 331.3 ± 2.6
230 K | 347.2 ± 2.7
240 K | 363.1 ± 2.8
250 K | 379 ± 2.9
260 K | 394.8 ± 3
270 K | 410.6 ± 3.1
280 K | 426.4 ± 3.3
290 K | 442.3 ± 3.4
298.15 K | 455.2 ± 3.5
300 K | 458.1 ± 3.5
310 K | 473.9 ± 3.6
320 K | 489.8 ± 3.7
330 K | 505.6 ± 3.8
340 K | 521.4 ± 4
350 K | 537.3 ± 4.1
